# Earlier results as cited in publication PMC9743095 (Journal of Medicinal Chemistry, 2022).
# Tested on: advanced solid tumors or lymphoma
# Set-up: method as in PMID 34497073
# Settings: preliminary findings, phase I/II trial; cited from earlier work
smiles,measurement,value
"C[C@H](NP(=O)(OC[C@@H]1C[C@@H](O)[C@H](n2cnc3c(N)ncnc32)O1)Oc1ccccc1)C(=O)OCc1ccccc1 (stereo partly drawn) [Compound 7a, (Rp)- and (Sp)-3′-Deoxyadenosine 5′-O-phenyl-(benzoxy-L-alaninyl)-phosphate]",anticancer activity,encouraging signals of anticancer activity
same,tolerability,well tolerated
